ChEMBL document CHEMBL1201862, “PubChem BioAssay data set” (2004)
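Five compound concentrations were applied to cells in 96-well plates for 48 hours; endpoints were derived by simple linear interpolation of the resulting dose-response curve. At the GI50, growth is halved.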 Active and inactive are the calls of the source. Cut-off read from the data, not from the text of the source: active = GI50 up to about 1.1 µM and inactive = higher.

Columns and labels:
Experiment in all cases: NCI tumour cell line growth inhibition, 48 h
T47D = system: T47D
MDA-N = system: MDA-N
A549 = system: A549
U-251 = system: U-251
OVCAR-8 = system: OVCAR-8
SNB-75 = system: SNB-75
COLO 205 = system: COLO 205
OVCAR-5 = system: OVCAR-5
HCC 2998 = system: HCC 2998
786-0 = system: 786-0
HOP-62 = system: HOP-62
NCI-H23 = system: NCI-H23
MCF7 = system: MCF7
SR = system: SR
NCI-H226 = system: NCI-H226
ACHN = system: ACHN
HCT-15 = system: HCT-15
TK-10 = system: TK-10
UACC-257 = system: UACC-257
HL-60 = system: HL-60

| Structure (SMILES) | GI50 (T47D) | GI50 (MDA-N) | GI50 (A549) | GI50 (U-251) | GI50 (OVCAR-8) | GI50 (SNB-75) | GI50 (COLO 205) | GI50 (OVCAR-5) | GI50 (HCC 2998) | GI50 (786-0) | GI50 (HOP-62) | GI50 (NCI-H23) | GI50 (MCF7) | GI50 (SR) | GI50 (NCI-H226) | GI50 (ACHN) | GI50 (HCT-15) [µM] | GI50 (TK-10) | GI50 (UACC-257) | GI50 (HL-60) |
| --- | --- | --- | --- | --- | --- | --- | --- | --- | --- | --- | --- | --- | --- | --- | --- | --- | --- | --- | --- | --- |
| CC(=O)NC1C(OCc2ccccc2)OC(CO)C(O)C1OCC(=O)N1CCCC1C(=O)N[C@@H](CCC(=O)NCCCCNc1c2ccccc2nc2cccc([N+](=O)[O-])c12)C(N)=O (some centres undefined) | 27.4 µM (inactive) | 14.8 µM (inactive) | 16 µM (inactive) | 18.9 µM (inactive) | 31 µM (inactive) | 21.4 µM (inactive) | 18.6 µM (inactive) | 25.8 µM (inactive) | 16.1 µM (inactive) | 46.1 µM (inactive) | 37.9 µM (inactive) | 15.7 µM (inactive) | 9.1 µM (inactive) | 20.1 µM (inactive) | 74 µM (inactive) | 26.6 µM (inactive) | 42.8 | 73.8 µM (inactive) |  |  |
| N=c1c2sc3nc4ccccc4n3c2ncn1Cc1ccccc1 | > 100 µM (inactive) | > 100 µM (inactive) | > 100 µM (inactive) | > 100 µM (inactive) | > 100 µM (inactive) | > 100 µM (inactive) | > 100 µM (inactive) | > 100 µM (inactive) | > 100 µM (inactive) | > 100 µM (inactive) | > 100 µM (inactive) | > 100 µM (inactive) | > 100 µM (inactive) | > 100 µM (inactive) | > 100 µM (inactive) | > 100 µM (inactive) | > 100 | 84.3 µM (inactive) | > 100 µM (inactive) |  |
| Cc1ccc(-c2cc(-c3ccc(Cl)cc3)nc(/N=C3\C(=O)N(CN4CCCCC4)c4ccc(Cl)cc43)n2)cc1 | 29.9 µM (inactive) | 21.3 µM (inactive) | 16.4 µM (inactive) | 24 µM (inactive) | 18.5 µM (inactive) | 42.9 µM (inactive) | 25.2 µM (inactive) | 38.2 µM (inactive) | 14.9 µM (inactive) | 18.9 µM (inactive) | 26.3 µM (inactive) | 19.1 µM (inactive) | 21.1 µM (inactive) |  | 39.4 µM (inactive) | 29.6 µM (inactive) | 24.4 | 21.7 µM (inactive) | 22.9 µM (inactive) | 16 µM (inactive) |
| COc1ccc(C(=O)C(Br)C(Br)C(=O)O)cc1 (centres undefined) | 33.1 µM (inactive) | 38.1 µM (inactive) | 66.5 µM (inactive) | 35.3 µM (inactive) | 32.7 µM (inactive) | 67.3 µM (inactive) | 21.9 µM (inactive) | 32.7 µM (inactive) |  | 31.8 µM (inactive) | 36.6 µM (inactive) | 39.4 µM (inactive) | 35.8 µM (inactive) |  | > 100 µM (inactive) | 44.2 µM (inactive) | 37.5 | 90.2 µM (inactive) | > 100 µM (inactive) |  |
| Cn1c2ccccc2c2c3c(c4c5ccccc5n(C)c4c21)C(=O)N(Cc1ccccc1)C3=O | > 100 µM (inactive) | > 100 µM (inactive) | 90.2 µM (inactive) | > 100 µM (inactive) | > 100 µM (inactive) | > 100 µM (inactive) | > 100 µM (inactive) | > 100 µM (inactive) | > 100 µM (inactive) | > 100 µM (inactive) | 19.3 µM (inactive) | > 100 µM (inactive) | > 100 µM (inactive) | 31.8 µM (inactive) | > 100 µM (inactive) | > 100 µM (inactive) | > 100 | > 100 µM (inactive) | > 100 µM (inactive) |  |
| CCN1CCC(O)(/C=C/c2ccc(Cl)c(Cl)c2)C(C(=O)/C=C/c2ccc(Cl)c(Cl)c2)C1 (centres undefined) | 0.966 µM (active) | 1.55 µM (inactive) | 0.673 µM (active) | 2.11 µM (inactive) | 0.745 µM (active) | 1.01 µM (active) | 0.705 µM (active) | 1.12 µM (inactive) | 1.71 µM (inactive) | 1.41 µM (inactive) | 0.951 µM (active) | 0.255 µM (active) | 1.06 µM (active) |  | 1.84 µM (inactive) | 1.06 µM (active) | 1.89 | 1.32 µM (inactive) | 0.986 µM (active) | 0.246 µM (active) |
| C=CCCC1CCCNC1=S (centres undefined) | > 100 µM (inactive) | > 100 µM (inactive) | > 100 µM (inactive) | > 100 µM (inactive) | > 100 µM (inactive) | > 100 µM (inactive) | > 100 µM (inactive) | > 100 µM (inactive) | > 100 µM (inactive) | > 100 µM (inactive) | > 100 µM (inactive) | > 100 µM (inactive) | > 100 µM (inactive) |  | > 100 µM (inactive) | > 100 µM (inactive) | > 100 | > 100 µM (inactive) | > 100 µM (inactive) |  |
| COc1ccc(/C(Cl)=C(\CNc2ccccn2)c2ccccc2)cc1OC | > 100 µM (inactive) | > 100 µM (inactive) | > 100 µM (inactive) | > 100 µM (inactive) | > 100 µM (inactive) | > 100 µM (inactive) | > 100 µM (inactive) | > 100 µM (inactive) | > 100 µM (inactive) | > 100 µM (inactive) | > 100 µM (inactive) | > 100 µM (inactive) |  | > 100 µM (inactive) | > 100 µM (inactive) | > 100 µM (inactive) | > 100 | > 100 µM (inactive) | > 100 µM (inactive) | > 100 µM (inactive) |
| Cc1cc(C)n(C2=NS(=O)(=O)c3ccccc3N2C)n1 | > 100 µM (inactive) | > 100 µM (inactive) | > 100 µM (inactive) | > 100 µM (inactive) | > 100 µM (inactive) |  | > 100 µM (inactive) | > 100 µM (inactive) | > 100 µM (inactive) | > 100 µM (inactive) | > 100 µM (inactive) | > 100 µM (inactive) | > 100 µM (inactive) |  | > 100 µM (inactive) | > 100 µM (inactive) | > 100 | > 100 µM (inactive) | > 100 µM (inactive) | > 100 µM (inactive) |
| Cc1nc2c(c(N3CCN(C)CC3)n1)Cc1ccccc1-2 | > 100 µM (inactive) | 58.5 µM (inactive) | 44.2 µM (inactive) | 75.3 µM (inactive) | 54 µM (inactive) | 91.2 µM (inactive) | 37.3 µM (inactive) | 80.7 µM (inactive) |  | 68.2 µM (inactive) |  | 57.8 µM (inactive) | 70.3 µM (inactive) |  | 45.8 µM (inactive) | 34.2 µM (inactive) | 32.5 | 31.4 µM (inactive) | 57 µM (inactive) | 42.1 µM (inactive) |
| Cc1ccccc1NC(=O)Cc1csc2[n+]1C(=O)/C(=C/c1ccc([N+](=O)[O-])cc1)S2 | 29.2 µM (inactive) | 37.2 µM (inactive) | 32 µM (inactive) | 29.7 µM (inactive) | 24.8 µM (inactive) | 19.3 µM (inactive) | 36 µM (inactive) | 37.8 µM (inactive) | 28.1 µM (inactive) | 58.9 µM (inactive) | 33.5 µM (inactive) | 23.9 µM (inactive) | 42.9 µM (inactive) |  | 31.2 µM (inactive) | 24.2 µM (inactive) | 24.3 | 19.9 µM (inactive) | 37.1 µM (inactive) | 27.7 µM (inactive) |
| O=C1CCC(=O)N1n1c(Cc2ccccc2)n[nH]c1=O | > 100 µM (inactive) | > 100 µM (inactive) | > 100 µM (inactive) | > 100 µM (inactive) | > 100 µM (inactive) | 5.26 µM (inactive) | > 100 µM (inactive) | > 100 µM (inactive) | > 100 µM (inactive) | > 100 µM (inactive) | > 100 µM (inactive) |  | > 100 µM (inactive) | > 100 µM (inactive) | > 100 µM (inactive) | > 100 µM (inactive) | > 100 | > 100 µM (inactive) | > 100 µM (inactive) |  |
| O=C1CCCCCCCCCCC1CN1CCCC1 (centres undefined) | 46.1 µM (inactive) | 33 µM (inactive) | 43.6 µM (inactive) | 26.7 µM (inactive) | 45.4 µM (inactive) | 32.9 µM (inactive) | 20.1 µM (inactive) | 22.3 µM (inactive) | 20 µM (inactive) | 20.4 µM (inactive) | 17.1 µM (inactive) | 36.1 µM (inactive) | 20.5 µM (inactive) |  | 15.4 µM (inactive) | 54.8 µM (inactive) | 32.8 | 32.3 µM (inactive) | 20 µM (inactive) | 32 µM (inactive) |
| N#C/C(=N/Nc1[nH]cnc1C(N)=O)C(=O)Nc1ccccc1 | 56.6 µM (inactive) | 12.9 µM (inactive) | > 100 µM (inactive) | > 100 µM (inactive) | 3.23 µM (inactive) | 24.5 µM (inactive) | 16.5 µM (inactive) | 34.6 µM (inactive) | 9.89 µM (inactive) | 22.8 µM (inactive) | 6.18 µM (inactive) | 56.8 µM (inactive) | 54 µM (inactive) |  | 27 µM (inactive) | 15.2 µM (inactive) | 35.5 | 18.5 µM (inactive) | 76.2 µM (inactive) | 28.9 µM (inactive) |
| CC(C)CCNC(=O)C(CC(C)C)NC(=O)[C@H]1O[C@@H]1C(=O)O (some centres undefined) | > 100 µM (inactive) | > 100 µM (inactive) | > 100 µM (inactive) | > 100 µM (inactive) | > 100 µM (inactive) | > 100 µM (inactive) | > 100 µM (inactive) | > 100 µM (inactive) | > 100 µM (inactive) | > 100 µM (inactive) | > 100 µM (inactive) | > 100 µM (inactive) | > 100 µM (inactive) |  | > 100 µM (inactive) |  | > 100 |  | > 100 µM (inactive) |  |
